Experimental data as given in patent US6436920B1, “Wrinkling modifiers” (Kao Corporation, priority 1996, dated 2002).

System: Wrinkles formed on hairless mice by exposure to UVB
Assay: Effect of the guanidine derivatives on wrinkles formed on hairless mice by exposure to UVB
Type: in vivo, Hairless mice (HR/ICR)
Settings: for Area percent by image analysis (%): proportion of shadows of wrinkles on back skin replicas (14 mm, illuminated at 30 degrees), 4% in aqueous ethanol, 100 μl 5 times a week over 6 weeks, control 10.6; for Wrinkle index: visual score 1 (wrinkles completely removed or smoothed) to 4 (observed to a great extent), 4% in aqueous ethanol (50/50 vol. %), 100 μl applied 5 times a week over 6 weeks, groups of 8 mice, control 3.73
Procedure: Effect of the Guanidine Derivatives (1) to (16) on Wrinkles Formed on Hairless Mice by Exposure to UVB
(1) Hairless mice (HR/ICR, aged 6 weeks at the beginning of the experiment) were,exposed to UVB 3 times a week by using 6 Toshiba healthy lamps, 20SE. The amount of energy was measured by means of a UV-Radiometer, UVR-305/365D manufactured by TOKYO OPTICAL K.K. The dose upon one exposure was determined to be 1 MED or less, i.e., 65 mJ in an amount of energy of 0.28 mW/cm^2. The exposure was effected for 20 weeks. After confirming that the hairless mice had got wrinkles at their backs, they were divided into groups each consisting of 8 mice. Aqueous ethanol (water/ethanol=50/50 vol. %) solutions separately containing Compounds (1) to (16) at a concentration of 4% were applied 5 times a week to their corresponding groups of mice over 6 weeks in a dose of 100 μl. As a control, aqueous ethanol (water/ethanol=50/50 vol. %) was applied in a dose of 100 μl like the samples. After completion of the application, the degree of wrinkles was visually observed to evaluate the samples in accordance with the following standard (wrinkle index).
1: Wrinkles were completely removed or smoothed;
2: Wrinkles were scarcely observed;
3: Wrinkles were somewhat observed;
(2) In order to further analyze the particulars of wrinkles, skin replicas of the size of 14 mm in diameter were gathered from a portion of the back in each of the mice using a Hydrophilic Exaflex hydrophilic vinylsilicone impression material. Each of these replicas was held horizontally and illuminated at an angle of 30 degrees from the horizontal direction, thereby finding a proportion of shadows of the wrinkles as an area percent by means of an image analyzer.

## N=C(N)N1CC(O)CC1C(=O)O (centres unmarked) [Compound (1)]
  Area percent by image analysis (%): 3.21%
  Wrinkle index: 2.0

## N=C(N)N1CCCC1C(=O)O (centres unmarked) [Compound (2)]
  Area percent by image analysis (%): 2.48%
  Wrinkle index: 2.125

## N=C(N)N1CCC(O)C1 (centres unmarked) [Compound (3)]
  Area percent by image analysis (%): 4.32%
  Wrinkle index: 2.50

## N=C(N)N1CCCC1CO (centres unmarked) [Compound (4)]
  Area percent by image analysis (%): 5.37%
  Wrinkle index: 2.50

## N=C(N)N1CCOCC1 [Compound (5)]
  Area percent by image analysis (%): 4.76%
  Wrinkle index: 2.75

## N=C(N)N1CCC(C(=O)O)CC1 [Compound (6)]
  Area percent by image analysis (%): 3.51%
  Wrinkle index: 2.75

## N=C(N)N1CCN(C(=N)N)CC1 [Compound (7)]
  Area percent by image analysis (%): 4.28%
  Wrinkle index: 2.75

## N=C(N)N1CCC(O)C1 (centres unmarked) [Compound (8)]
  Area percent by image analysis (%): 3.26%
  Wrinkle index: 2.25

## N=C(N)N1CCCC1CO (centres unmarked) [Compound (9)]
  Area percent by image analysis (%): 4.00%
  Wrinkle index: 2.375

## N=C(N)N1CCOCC1 [Compound (10)]
  Area percent by image analysis (%): 3.41%
  Wrinkle index: 2.50

## N=C(N)N1CCN(C(=N)N)CC1 [Compound (11)]
  Area percent by image analysis (%): 4.02%
  Wrinkle index: 2.75

## N=C(N)N1CCC(O)C1 (centres unmarked) [Compound (12)]
  Area percent by image analysis (%): 3.62%
  Wrinkle index: 2.50

## N=C(N)N1CCCC1CO (centres unmarked) [Compound (13)]
  Area percent by image analysis (%): 4.30%
  Wrinkle index: 2.375

## N=C(N)N1CCCC1 [Compound (14)]
  Area percent by image analysis (%): 3.62%
  Wrinkle index: 2.125

## N=C(N)N1CCCCC1 [Compound (15)]
  Area percent by image analysis (%): 4.48%
  Wrinkle index: 2.50

## N=C(N)N1CCC(CC(=O)O)CC1 [Compound (16)]
  Area percent by image analysis (%): 4.25%
  Wrinkle index: 2.25
